Consider four compounds from ChEMBL document CHEMBL3120061, “Novel spiroketal pyrrolidine GSK2336805 potently inhibits key hepatitis C virus genotype 1b mutants: from lead to clinical compound” (J Med Chem, 2014).

SMILES strings stand for the structures. Where only a bound is given, the exact number is not on record here.

Data set [1] relates to Hepatitis C virus. As to the kind of experiment: Antiviral activity against Hepatitis C virus genotype 1b harboring NS5A L31V mutant gene in Huh-luc/neo-ET replicon cells after 48 hrs by transient replicon mutant-based luciferase assay. The data set is classed as functional, organism-based, Hepacivirus hominis. A general note: A replicon is a self-replicating genome or part of one, used to study replication in cells.

Data set [2] deals with Hepatitis C virus. Description: Ratio of EC50 for Hepatitis C virus genotype 1b harboring NS5A Y93H mutant gene to EC50 for Hepatitis C virus genotype 1b harboring wild type NS5A in Huh-luc/neo-ET replicon cells by replicon-based luciferase assay. Format: functional, Hepacivirus hominis.
In data set [3] the test system is Hepatitis C virus. As to the kind of experiment: Ratio of EC50 for Hepatitis C virus genotype 1b harboring NS5A L31V mutant gene to EC50 for Hepatitis C virus genotype 1b harboring wild type NS5A in Huh-luc/neo-ET replicon cells by replicon-based luciferase assay. Format: functional, Hepacivirus hominis.
Data set [4] has as its system Hepatitis C virus. As to the kind of experiment: Antiviral activity against Hepatitis C virus genotype 1b in Huh-luc/neo-ET replicon cells after 48 hrs by replicon-based luciferase assay. Format: functional, organism-based, Hepacivirus hominis.
In data set [5] the test system is Hepatitis C virus. As to the kind of experiment: Antiviral activity against Hepatitis C virus genotype 1a in Huh-luc/neo-ET replicon cells after 48 hrs by replicon-based luciferase assay. Format: functional, organism-based, Hepacivirus hominis. Particulars: subtype 1a.
Data set [6] concerns Hepatitis C virus. Description: Antiviral activity against Hepatitis C virus genotype 1b harboring NS5A Y93H mutant gene in Huh-luc/neo-ET replicon cells after 48 hrs by transient replicon mutant-based luciferase assay. Format: functional, organism-based, Hepacivirus hominis.
In data set [7] the test system is Hepatitis C virus. Description: Antiviral activity against Hepatitis C virus genotype 1b harboring NS5A L28V mutant gene in Huh-luc/neo-ET replicon cells after 48 hrs by transient replicon mutant-based luciferase assay. Format: functional, organism-based, Hepacivirus hominis.
Data set [8] in a line: Oral bioavailability in CD rat. Particulars: in vivo. Format: ADME, organism-based.
Data set [9] is described as follows: In vivo clearance in CD rat relative to hepatic blood flow. Particulars: read-out: CLH. Format: ADME, organism-based, Liver.
The subject of data set [10] is Hepatitis C virus. Description: Antiviral activity against Hepatitis C virus genotype 1b in Huh-luc/neo-ET replicon cells assessed as log10 reduction of HCV RNA at 3 times EC90 after 20 days by RNA reduction assay. Format: functional, Hepacivirus hominis.
For data set [11], the system named is Hepatitis C virus. Description: Antiviral activity against Hepatitis C virus genotype 1b in Huh-luc/neo-ET replicon cells assessed as log10 reduction of HCV RNA at 10 times EC90 after 20 days by RNA reduction assay. Format: functional, Hepacivirus hominis.
Data set [12] relates to Hepatitis C virus. Description: Antiviral activity against Hepatitis C virus genotype 1b in Huh-luc/neo-ET replicon cells assessed as log10 reduction of HCV RNA at 3 to 10 times EC90 after 5 days by RNA reduction assay. The data set is classed as functional, Hepacivirus hominis.

In general, EC50 refers to the concentration giving half of the maximal effect. Low readings indicate a more potent agent, high ones a less potent agent. In the case of `COC(=O)N[C@H](C(=O)N1CC2(CCOCC2)C[C@H]1c1ncc(-c2ccc(-c3ccc(-c4cnc([C@@H]5CC6(CCOCC6)CN5C(=O)[C@@H](NC(=O)OC)C(C)C)[nH]4)cc3)cc2)[nH]1)C(C)C`, the EC50 was 0.02 nM in data set [1]; 0.0126 nM in data set [4]; 0.02 nM in data set [5]; 0.126 nM in [6]; 6.31 pM in data set [7]. Besides, the “Ratio EC50” value is given as “>=30” in [2] and “<=5” in data set [3].

What is called bioavailability is the share of a dose that reaches the circulation, judged against a reference dose that is usually intravenous. Low readings indicate poor availability, high ones good availability. As for `COC(=O)N[C@H](C(=O)N1CC2(C[C@H]1c1ncc(-c3ccc(-c4ccc(-c5cnc([C@@H]6CC7(CN6C(=O)[C@@H](NC(=O)OC)C(C)C)OCCO7)[nH]5)cc4)cc3)[nH]1)OCCO2)C(C)C`, the EC50 is 0.0251 nM in data set [1]; 0.01 nM in data set [4]; 0.0501 nM in data set [5]; 0.0126 nM in [6]; 12.6 pM in data set [7]. The compound also showed a bioavailability in data set [8] of 9%. Besides, the “Ratio EC50” value in data set [3] was “<=5”. Moreover, in data set [9], the clearance is 58 mL/min/kg.

As for `COC(=O)N[C@H](C(=O)N1CCC[C@H]1c1ncc(-c2ccc(-c3ccc(-c4cnc([C@@H]5CC6(CCC(F)(F)CC6)CN5C(=O)[C@@H](NC(=O)OC)C(C)C)[nH]4)cc3)cc2)[nH]1)C(C)C`, the EC50 in data set [1] was 0.2 nM; in data set [4], 0.00251 nM; in data set [5], 0.0398 nM; in [6] it was 1 nM; in data set [7], 1.58 pM. Besides, the entries for the “Ratio EC50” value in data set [2] and in data set [3] were “>=30” and “>=25”, respectively.

With `COC(=O)N[C@H](C(=O)N1CCC[C@H]1c1ncc(-c2ccc(-c3ccc(-c4cnc([C@@H]5CCCN5C(=O)[C@@H](NC(=O)OC)C(C)C)[nH]4)cc3)cc2)[nH]1)C(C)C` [DACLATASVIR], the EC50 in data set [1] is 0.126 nM; in data set [4], 0.01 nM; in data set [5] it was 0.0398 nM; in data set [6], 0.316 nM; in [7], 3.98 pM. Further, the “Ratio EC50” value in data set [2] is reported as “>=30”; in [3], “>=25”. Moreover, the figures for the FC in [10], in data set [11] and in data set [12] were 2, 3 and 2, respectively.
